Laboratory results from the METLIN SMRT retention time set (Domingo-Almenara et al. 2019).

Test: gradient 5% acetonitrile 3 min, to 50% in 2 min, to 85% in 15 min, held 3 min, 100 µL/min
Details: column: Zorbax Extend-C18 2.1 x 50 mm; eluents: water / acetonitrile, 0.1% formic acid
Summary of the method: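 Retention times of pure standards were taken from adduct peaks that were selected by computer and manually inspected. Over 3 months, mixtures of ~100 molecules were run by HPLC–quadrupole time-of-flight mass spectrometry in positive and negative ionization mode. The Zorbax Extend-C18 column (2.1 × 50 mm, 1.8 μm) ran at 100 μL/min in water and acetonitrile, each containing 0.1% formic acid, with 40 μL dead volume and 900 μL dwell volume.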

| SMILES | RP-LC retention time [s] |
| --- | --- |
| CCc1nnc(NC(=O)CSc2nnc(NC(=O)NC(C)(C)C)s2)s1 | 672 |
| COC[C@@H]1CN(Cc2cccc(OC)c2OC)C[C@H]1c1ccncc1 | 656 |
| COc1ccc(S(=O)(=O)N2CCC(c3noc(-c4ccccc4C)n3)CC2)cc1 | 1150 |
| Cc1ccc(C(=O)NCCn2c(C)cnc2C)s1 | 589 |
| Cc1ccc(OCc2ccc(-c3nc(C#N)c(NCCN(C)C)o3)o2)cc1 | 709 |
| O=C(Cc1csc2nc(-c3ccccc3)cn12)N1CCc2ccccc2C1 | 826 |
| Cc1cc(N2CCCC2)nc(N2CCN(C(=O)CC3CCCC3)CC2)n1 | 694 |
| Cc1nc(-c2cc(S(=O)(=O)NCCCN3CCC(C)CC3)c(C)s2)sc1C | 699 |
| CCOCc1nc(C2CCCN2C(=O)Nc2ccsc2C(=O)OC)no1 (stereo unspecified) | 626 |
| Cc1cc(C)cc(NC(=O)c2cn(-c3cc(N4CCCC4)ncn3)cn2)c1 | 972 |
| CC(C)NC(=O)c1ccc(OCC2CCN(C(=O)c3cc(F)ccc3Cl)CC2)cc1 | 891 |
| O=C(Cn1ccn2nc(-c3ccc(F)cc3)c(CO)c2c1=O)NC1CCCC1 | 770 |
| CN(C)C(=O)c1ccc(-n2nc(C(F)(F)F)c3c2CCCC3)cc1 | 882 |
| Cc1nnc2cc(N3CCN(Cc4ccc(C(C)C)cc4)CC3)cnn12 | 613 |
| CCCCN(CC)c1nc(C)nc2c1c(C)cn2-c1c(C)cc(C)cc1C | 945 |
| C=CCN1CCN(C(=O)C2=NN(c3ccc(C)cc3)c3ncccc3S2(=O)=O)CC1 | 637 |
| Cc1cccc(-c2nc(N3CCCC3)ncc2C(=O)O)c1 | 819 |
| CNC(=O)N1CCCC(c2cccc(C(=O)NCc3ccc(N(C)C)cc3)c2)C1 (stereo unspecified) | 607 |
| Cc1cccc(-c2noc(C3CCCN3C(=O)C3CC(=O)N(c4ccc(C)c(C)c4)C3)n2)c1 (stereo unspecified) | 1030 |
| COc1ccc(-c2cc(N3CCC(NC(=O)c4cccc(C#N)c4)C3)n[nH]2)cc1 (stereo unspecified) | 692 |

Second part, the compound after the results:

| RP-LC retention time [s] | SMILES |
| --- | --- |
| 965 | CCOC(=O)c1cccc(NC2=NS(=O)(=O)C(c3ccc(OC)cc3)=C2C)c1 |
| 668 | Cn1ncc2c3ccccc3n(CC(=O)N3CCN(C(=O)c4ccco4)CC3)c2c1=O |
| 807 | O=C(Nc1nnc(C2CC(=O)N(c3ccccc3)C2)o1)c1ccccc1Cl (stereo unspecified) |
| 795 | Cc1nc2ccccc2n(CCC(=O)NCCc2c[nH]c3ccc(Cl)cc23)c1=O |
| 583 | Cn1ncc2c3ccccc3n(CC(=O)NCCc3cnc[nH]3)c2c1=O |
| 1160 | Cc1sc(NC(=O)Cc2csc(-c3ccccc3)n2)nc1-c1ccccc1 |
| 1160 | CCc1ccc(NC(=O)Cn2nc3cc(C)nc(Nc4ccc(F)c(C)c4)n3c2=O)cc1 |
| 926 | O=C(COc1ccccc1)NCCS(=O)(=O)N1CCN(c2cccc(Cl)c2)CC1 |
| 1060 | CC1CCN(c2nn(CC(=O)Nc3ccc4c(c3)OCCO4)c(=O)c3ccccc23)CC1 |
| 843 | CCN1C(=O)C(C)(C(=O)NCc2ccccc2OC)Oc2cccnc21 (stereo unspecified) |
| 791 | COc1cccc(CNC(=O)CCc2nc3c(C)cccc3c(=O)n2C)c1OC |
| 807 | Cc1ccc(-c2nnc(-c3nc(NCCCN4CCCC4=O)c4ccccc4n3)o2)cc1 |
| 700 | O=C(O)c1ccc(-c2c[nH]c3ncc(-c4ccccc4)cc23)cc1C1CCCC1 |
| 770 | COCCCn1cc(C(=O)N2CCc3ccccc3C2)c2nn(-c3ccccc3)c(=O)c-2c1 |
| 683 | O=C(NCc1ccccc1)C1CCN(S(=O)(=O)c2ccc3[nH]c(=O)ccc3c2)CC1 |
| 754 | CCOc1ccc(N(Cc2nc3nc(C)cc(C)n3n2)C(=O)c2ccco2)cc1 |
